Results: ChEMBL document CHEMBL1201862, “PubChem BioAssay data set” (2004)
Calls of active or inactive are those of the source.

Legend:
[1] = target: T1, High affinity choline transporter 1 (Homo sapiens, UniProt Q9GZV3); experiment: CHT activators, dose response, cell-based, 10-point CRC, membrane potential dye (AID 602376); format: functional
T1 sequence (Q9GZV3 whole entry): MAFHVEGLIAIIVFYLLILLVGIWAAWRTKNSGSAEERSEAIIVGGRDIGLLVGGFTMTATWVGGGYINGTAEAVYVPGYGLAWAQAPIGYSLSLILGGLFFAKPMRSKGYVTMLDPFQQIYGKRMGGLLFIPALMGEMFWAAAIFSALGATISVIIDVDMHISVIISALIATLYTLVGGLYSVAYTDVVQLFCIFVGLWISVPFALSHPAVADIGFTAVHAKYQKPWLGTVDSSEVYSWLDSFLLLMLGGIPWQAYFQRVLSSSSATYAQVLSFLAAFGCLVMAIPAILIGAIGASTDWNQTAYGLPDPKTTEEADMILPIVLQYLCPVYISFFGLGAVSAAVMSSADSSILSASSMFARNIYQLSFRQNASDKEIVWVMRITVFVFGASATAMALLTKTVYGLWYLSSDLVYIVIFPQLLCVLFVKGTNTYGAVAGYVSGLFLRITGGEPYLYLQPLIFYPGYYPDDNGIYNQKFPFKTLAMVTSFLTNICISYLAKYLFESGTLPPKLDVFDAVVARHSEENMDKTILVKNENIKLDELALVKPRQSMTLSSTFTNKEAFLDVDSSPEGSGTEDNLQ

[2] = Vero cell cytotoxicity, dose response, cytotoxicity control for M. tuberculosis growth inhibitor project, Vero cells, purified and synthesized compounds, set 4 (AID 504854); format: functional; settings: Mycobacterium tuberculosis
[3] = THP-1 cell cytotoxicity, dose response, cytotoxicity control, set 3 (AID 504852); format: functional; settings: Mycobacterium tuberculosis
[4] = THP-1 cell cytotoxicity, cytotoxicity control, set 4 (AID 504911); format: functional; settings: Mycobacterium tuberculosis
[5] = target: Aurora kinase A (Homo sapiens, UniProt O14965); format: functional;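 also: value from the Navigating the Kinome kinase panel profiling, panel entry STK6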
[6] = target: Aurora kinase B (Homo sapiens, UniProt Q96GD4); format: functional
Aurora kinase B, sequence (Q96GD4 whole entry): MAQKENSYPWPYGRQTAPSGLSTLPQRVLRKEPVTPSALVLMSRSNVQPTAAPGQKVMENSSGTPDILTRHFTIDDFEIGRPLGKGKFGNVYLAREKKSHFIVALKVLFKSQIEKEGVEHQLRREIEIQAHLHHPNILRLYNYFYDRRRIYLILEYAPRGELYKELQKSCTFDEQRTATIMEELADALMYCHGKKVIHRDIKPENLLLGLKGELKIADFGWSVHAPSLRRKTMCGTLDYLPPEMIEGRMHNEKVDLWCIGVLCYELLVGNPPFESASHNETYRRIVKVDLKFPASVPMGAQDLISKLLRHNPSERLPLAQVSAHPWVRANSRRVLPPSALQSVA

[7] = target: Ion channel NompC (Danio rerio, UniProt Q7T1G6); experiment: Dose response cell-based high-throughput screening assay for agonists of the transient receptor potential channel N1 (TRPN1). [Related pubchem assays (depositor defined):AID1424, AID1448]; format: functional
[8] = target: T2, Mucolipin-3 (Homo sapiens, UniProt Q8TDD5); experiment: Fluorescence counterscreen assay for […] agonists: dose response cell-based high-throughput screening assay to identify agonists of the transient receptor potential channel ML3 (TRPML3). [Related pubchem assays: 1424, 1448 ]; format: functional
T2 sequence (Q8TDD5 whole entry): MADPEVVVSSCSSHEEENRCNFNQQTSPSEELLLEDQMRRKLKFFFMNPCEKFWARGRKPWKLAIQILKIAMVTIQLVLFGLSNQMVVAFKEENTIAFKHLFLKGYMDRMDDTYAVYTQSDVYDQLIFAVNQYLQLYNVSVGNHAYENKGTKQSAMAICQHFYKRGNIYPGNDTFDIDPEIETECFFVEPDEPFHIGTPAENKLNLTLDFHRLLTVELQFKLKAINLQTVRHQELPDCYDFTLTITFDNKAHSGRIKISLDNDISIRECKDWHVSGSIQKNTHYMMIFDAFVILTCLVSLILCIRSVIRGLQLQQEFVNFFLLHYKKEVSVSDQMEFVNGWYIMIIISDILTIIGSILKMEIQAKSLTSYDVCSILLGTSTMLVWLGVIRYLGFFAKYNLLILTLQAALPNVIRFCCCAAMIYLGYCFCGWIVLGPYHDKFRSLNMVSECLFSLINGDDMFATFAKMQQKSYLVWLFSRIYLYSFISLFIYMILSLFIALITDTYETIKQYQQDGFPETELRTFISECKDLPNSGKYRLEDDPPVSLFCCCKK

[9] = target: Troponin, cardiac muscle (Homo sapiens, UniProt P19429+P45379+P63316); experiment: Fluorescence-based biochemical high throughput dose response assay for activators of the calcium sensitivity of cardiac Regulated Thin Filaments (RTF). [Related pubchem assays (depositor defined):AID493008, AID493018, AID504382, AID504383]; format: protein-complex assay
[10] = target: Multidrug resistance protein CDR2 (Candida albicans (strain SC5314 / ATCC MYA-2876) (Yeast), UniProt P78595); experiment: CaCDR2 efflux pump inhibitors in yeast, dose response, S. cerevisiae AD1-8u, singleplex, Cherry Pick1 hits (AID 588604); format: functional
[11] = target: Glycogen synthase kinase-3 beta (Homo sapiens, UniProt P49841); experiment: GSK3beta kinase inhibitors, dose response, biochemical, microfluidics, dry powder samples, set 2 (AID 623989); format: functional
[12] = target: Vascular endothelial growth factor receptor 2 (Homo sapiens, UniProt P35968); format: functional
[13] = target: Tyrosine-protein kinase Lck (Homo sapiens, UniProt P06239); format: functional;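 also: lck was assayed as one member of a kinase panel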
[14] = target: Neuropeptides B/W receptor type 1 (Homo sapiens, UniProt P48145); experiment: GPR7 antagonist potency, late-stage follow-up, cell-based, fluorescence, dose response, set 5 (AID 588566); format: functional
Neuropeptides B/W receptor type 1, sequence (P48145 whole entry): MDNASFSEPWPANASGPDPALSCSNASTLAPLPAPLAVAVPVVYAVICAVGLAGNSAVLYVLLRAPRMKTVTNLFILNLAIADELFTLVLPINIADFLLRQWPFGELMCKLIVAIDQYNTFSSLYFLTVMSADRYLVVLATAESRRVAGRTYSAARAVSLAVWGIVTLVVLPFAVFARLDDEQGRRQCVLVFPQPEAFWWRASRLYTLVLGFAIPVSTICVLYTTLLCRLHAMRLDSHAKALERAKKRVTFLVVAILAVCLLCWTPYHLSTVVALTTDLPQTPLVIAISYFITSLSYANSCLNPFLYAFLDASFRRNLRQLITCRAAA

[15] = target: Melanin-concentrating hormone receptor 1 (Homo sapiens, UniProt Q99705); experiment: Late-stage fluorescence-based counterscreen for antagonists of the G-protein coupled receptor 7 (GPR7): cell-based dose response assay to identify antagonists of the melanin-concentrating hormone receptor 1 (MCHR1) Set 5.; format: functional
Melanin-concentrating hormone receptor 1, sequence (Q99705 whole entry): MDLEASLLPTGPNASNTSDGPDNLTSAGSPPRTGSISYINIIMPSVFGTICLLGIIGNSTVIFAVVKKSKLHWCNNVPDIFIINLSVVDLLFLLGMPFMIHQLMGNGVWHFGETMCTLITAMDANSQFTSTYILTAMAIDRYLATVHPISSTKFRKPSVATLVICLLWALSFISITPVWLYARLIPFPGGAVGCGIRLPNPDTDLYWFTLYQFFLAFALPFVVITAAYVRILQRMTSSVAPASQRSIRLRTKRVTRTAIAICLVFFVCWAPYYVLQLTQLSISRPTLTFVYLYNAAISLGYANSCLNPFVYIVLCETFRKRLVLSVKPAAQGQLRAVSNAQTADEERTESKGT

[16] = A cell-based HTS for delayed death inhibitors of the malarial parasite plastid Measured in Microorganism System Using Plate Reader - 2126-01_Inhibitor_Dose_DryPowder_Activity.; format: functional, organism-based
[17] = FACS-based assay to assess parasite growth inhibition 48 hr Measured in Cell-Based System Using Flow Cytometry - 2126-03_Inhibitor_Dose_DryPowder_Activity. [Related pubchem assays (depositor defined):AID488774]; format: functional; settings: Homo sapiens
[18] = A cell-based HTS for delayed death inhibitors of the malarial parasite plastid Measured in Microorganism System Using Plate Reader - 2126-02_Inhibitor_Dose_DryPowder_Activity.; format: functional, organism-based
[19] = system: Erythrocyte; experiment: FACS-based assay to assess parasite growth inhibition 96 hr Measured in Cell-Based System Using Flow Cytometry - 2126-05_Inhibitor_Dose_DryPowder_Activity. [Related pubchem assays (depositor defined):AID488774]; format: functional; settings: Homo sapiens
[20] = target: cAMP-dependent protein kinase catalytic subunit PRKX (Homo sapiens, UniProt P51817); format: functional
[21] = target: Dual specificity protein kinase CLK4 (Homo sapiens, UniProt Q9HAZ1); format: functional
Dual specificity protein kinase CLK4, sequence (Q9HAZ1 whole entry): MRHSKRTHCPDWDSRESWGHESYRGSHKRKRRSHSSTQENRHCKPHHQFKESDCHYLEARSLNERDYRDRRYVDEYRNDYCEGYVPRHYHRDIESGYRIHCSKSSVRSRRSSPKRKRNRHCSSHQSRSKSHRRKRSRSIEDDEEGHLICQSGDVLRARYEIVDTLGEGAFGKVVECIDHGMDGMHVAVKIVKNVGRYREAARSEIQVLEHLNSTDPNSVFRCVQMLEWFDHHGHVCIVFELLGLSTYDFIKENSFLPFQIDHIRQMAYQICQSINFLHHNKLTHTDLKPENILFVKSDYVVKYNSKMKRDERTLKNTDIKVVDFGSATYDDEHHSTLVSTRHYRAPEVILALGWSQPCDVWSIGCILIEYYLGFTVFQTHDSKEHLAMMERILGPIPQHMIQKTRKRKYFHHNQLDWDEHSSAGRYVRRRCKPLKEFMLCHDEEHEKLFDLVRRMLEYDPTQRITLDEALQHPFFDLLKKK

[22] = target: Cyclin-dependent kinase 9 (Homo sapiens, UniProt P50750); format: functional;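 also: value from the CDK9 entry of a kinome-spanning kinase panel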
[23] = target: Hepatocyte growth factor receptor (Homo sapiens, UniProt P08581); format: functional;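 also: kinase panel profiling across the kinome, with MET as the panel member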
Hepatocyte growth factor receptor, sequence (P08581 whole entry): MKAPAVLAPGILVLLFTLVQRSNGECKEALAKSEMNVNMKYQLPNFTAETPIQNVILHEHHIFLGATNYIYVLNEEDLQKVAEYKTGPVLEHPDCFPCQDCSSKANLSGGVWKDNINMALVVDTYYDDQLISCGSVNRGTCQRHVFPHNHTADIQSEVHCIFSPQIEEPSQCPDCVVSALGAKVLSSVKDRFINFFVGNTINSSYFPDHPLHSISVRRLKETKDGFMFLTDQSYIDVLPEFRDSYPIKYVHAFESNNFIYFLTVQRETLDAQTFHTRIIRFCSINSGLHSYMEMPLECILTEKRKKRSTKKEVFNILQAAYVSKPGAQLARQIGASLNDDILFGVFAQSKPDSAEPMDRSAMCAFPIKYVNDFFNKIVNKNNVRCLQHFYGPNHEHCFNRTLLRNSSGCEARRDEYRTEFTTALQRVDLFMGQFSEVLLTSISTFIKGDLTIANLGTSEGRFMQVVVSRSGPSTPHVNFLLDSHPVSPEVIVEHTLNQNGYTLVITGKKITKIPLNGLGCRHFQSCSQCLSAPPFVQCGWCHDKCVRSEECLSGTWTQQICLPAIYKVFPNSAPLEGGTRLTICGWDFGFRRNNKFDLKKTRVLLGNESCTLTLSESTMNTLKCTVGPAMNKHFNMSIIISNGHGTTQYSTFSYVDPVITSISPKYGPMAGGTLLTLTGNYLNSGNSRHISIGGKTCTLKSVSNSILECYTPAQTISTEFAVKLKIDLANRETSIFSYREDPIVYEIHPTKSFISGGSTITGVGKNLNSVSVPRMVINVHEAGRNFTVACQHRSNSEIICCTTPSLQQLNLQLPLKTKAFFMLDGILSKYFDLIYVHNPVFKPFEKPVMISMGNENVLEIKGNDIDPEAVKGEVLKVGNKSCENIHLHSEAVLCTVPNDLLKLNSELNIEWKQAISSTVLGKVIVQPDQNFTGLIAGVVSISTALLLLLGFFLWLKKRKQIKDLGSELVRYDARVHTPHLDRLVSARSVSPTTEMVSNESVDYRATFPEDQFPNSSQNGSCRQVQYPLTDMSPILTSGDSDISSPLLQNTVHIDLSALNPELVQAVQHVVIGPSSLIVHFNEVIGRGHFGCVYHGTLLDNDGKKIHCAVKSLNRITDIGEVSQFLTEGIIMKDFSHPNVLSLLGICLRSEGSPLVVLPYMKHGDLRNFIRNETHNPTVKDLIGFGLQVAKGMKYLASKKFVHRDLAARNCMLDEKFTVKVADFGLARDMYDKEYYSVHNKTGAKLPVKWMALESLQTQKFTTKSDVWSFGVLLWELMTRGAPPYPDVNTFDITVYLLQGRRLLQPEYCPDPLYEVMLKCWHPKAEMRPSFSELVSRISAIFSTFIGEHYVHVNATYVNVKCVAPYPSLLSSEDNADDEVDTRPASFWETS

[24] = target: Leucine-rich repeat serine/threonine-protein kinase 2 (Homo sapiens, UniProt Q5S007); format: functional;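 also: value from a broad kinome-wide panel profiling study in which LRRK2 was one of the kinases tested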
[25] = target: Serine/threonine-protein kinase Chk1 (Homo sapiens, UniProt O14757); format: functional;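 also: measured as one member of a kinome-wide kinase profiling panel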
[26] = target: Leukocyte tyrosine kinase receptor (Homo sapiens, UniProt P29376); experiment: Navigating the Kinome. Panel member name: LTK; format: functional
[27] = target: G protein-coupled receptor kinase 5 (Homo sapiens, UniProt P34947); experiment: Navigating the Kinome. Panel member name: GPRK5; format: functional
G protein-coupled receptor kinase 5, sequence (P34947 whole entry): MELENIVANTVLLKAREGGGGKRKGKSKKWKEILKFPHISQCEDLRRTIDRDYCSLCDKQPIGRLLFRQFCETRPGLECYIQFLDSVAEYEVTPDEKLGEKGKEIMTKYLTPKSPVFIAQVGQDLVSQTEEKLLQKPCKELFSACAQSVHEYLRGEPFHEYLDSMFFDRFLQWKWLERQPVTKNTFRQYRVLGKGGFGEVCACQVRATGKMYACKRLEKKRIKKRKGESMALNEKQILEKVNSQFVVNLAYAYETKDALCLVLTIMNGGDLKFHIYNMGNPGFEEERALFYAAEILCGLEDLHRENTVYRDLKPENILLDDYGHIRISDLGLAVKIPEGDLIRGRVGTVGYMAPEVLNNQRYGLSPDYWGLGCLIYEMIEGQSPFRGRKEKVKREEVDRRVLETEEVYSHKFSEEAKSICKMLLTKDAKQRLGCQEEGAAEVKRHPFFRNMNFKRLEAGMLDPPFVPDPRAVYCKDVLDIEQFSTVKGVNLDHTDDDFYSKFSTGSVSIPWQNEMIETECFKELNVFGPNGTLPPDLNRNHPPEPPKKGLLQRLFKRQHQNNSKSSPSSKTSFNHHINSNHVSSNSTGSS

[28] = target: Cell division cycle 7-related protein kinase (Homo sapiens, UniProt O00311); format: functional;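 also: value obtained from a kinome-wide kinase panel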
Cell division cycle 7-related protein kinase, sequence (O00311 whole entry): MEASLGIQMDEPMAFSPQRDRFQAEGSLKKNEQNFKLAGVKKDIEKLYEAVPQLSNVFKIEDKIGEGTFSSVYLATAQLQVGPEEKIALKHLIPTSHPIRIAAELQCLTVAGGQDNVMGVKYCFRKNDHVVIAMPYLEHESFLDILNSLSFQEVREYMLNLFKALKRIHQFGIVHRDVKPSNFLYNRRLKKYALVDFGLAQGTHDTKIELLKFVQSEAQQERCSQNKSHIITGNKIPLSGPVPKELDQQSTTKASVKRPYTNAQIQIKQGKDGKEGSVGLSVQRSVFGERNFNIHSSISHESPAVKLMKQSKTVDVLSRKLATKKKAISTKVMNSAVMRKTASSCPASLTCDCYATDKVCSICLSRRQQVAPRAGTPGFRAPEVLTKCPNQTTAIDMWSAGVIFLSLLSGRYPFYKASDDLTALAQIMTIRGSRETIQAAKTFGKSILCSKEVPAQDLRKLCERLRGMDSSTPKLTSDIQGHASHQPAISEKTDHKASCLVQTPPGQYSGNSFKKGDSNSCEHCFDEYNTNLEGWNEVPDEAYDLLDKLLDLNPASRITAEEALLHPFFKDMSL

[29] = target: Melanocortin receptor 4 (Homo sapiens, UniProt P32245); experiment: MC4R antagonist potency on cAMP, dose response, cell-based, TR-FRET, biased antagonists (AID 602298); format: functional;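 also: antagonist potency against agonist-stimulated cAMP production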
[30] = nonselective inhibitors of cellular cAMP signaling, dose response, counter-screen for MC4R biased antagonist project, cell-based, TR-FRET cAMP detection (AID 602305); format: functional;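 also: U2OS cells stimulated with forskolin near its EC80 as the cAMP inducer; potency is for inhibition of forskolin-stimulated cAMP signaling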
[31] = target: Ephrin type-A receptor 4 (Mus musculus, UniProt Q03137); experiment: inhibitors of EphA4 binding to KYL peptide, primary screen, biochemical, colorimetric, mouse EphA4 (AID 689); format: functional
Ephrin type-A receptor 4, sequence (Q03137 whole entry): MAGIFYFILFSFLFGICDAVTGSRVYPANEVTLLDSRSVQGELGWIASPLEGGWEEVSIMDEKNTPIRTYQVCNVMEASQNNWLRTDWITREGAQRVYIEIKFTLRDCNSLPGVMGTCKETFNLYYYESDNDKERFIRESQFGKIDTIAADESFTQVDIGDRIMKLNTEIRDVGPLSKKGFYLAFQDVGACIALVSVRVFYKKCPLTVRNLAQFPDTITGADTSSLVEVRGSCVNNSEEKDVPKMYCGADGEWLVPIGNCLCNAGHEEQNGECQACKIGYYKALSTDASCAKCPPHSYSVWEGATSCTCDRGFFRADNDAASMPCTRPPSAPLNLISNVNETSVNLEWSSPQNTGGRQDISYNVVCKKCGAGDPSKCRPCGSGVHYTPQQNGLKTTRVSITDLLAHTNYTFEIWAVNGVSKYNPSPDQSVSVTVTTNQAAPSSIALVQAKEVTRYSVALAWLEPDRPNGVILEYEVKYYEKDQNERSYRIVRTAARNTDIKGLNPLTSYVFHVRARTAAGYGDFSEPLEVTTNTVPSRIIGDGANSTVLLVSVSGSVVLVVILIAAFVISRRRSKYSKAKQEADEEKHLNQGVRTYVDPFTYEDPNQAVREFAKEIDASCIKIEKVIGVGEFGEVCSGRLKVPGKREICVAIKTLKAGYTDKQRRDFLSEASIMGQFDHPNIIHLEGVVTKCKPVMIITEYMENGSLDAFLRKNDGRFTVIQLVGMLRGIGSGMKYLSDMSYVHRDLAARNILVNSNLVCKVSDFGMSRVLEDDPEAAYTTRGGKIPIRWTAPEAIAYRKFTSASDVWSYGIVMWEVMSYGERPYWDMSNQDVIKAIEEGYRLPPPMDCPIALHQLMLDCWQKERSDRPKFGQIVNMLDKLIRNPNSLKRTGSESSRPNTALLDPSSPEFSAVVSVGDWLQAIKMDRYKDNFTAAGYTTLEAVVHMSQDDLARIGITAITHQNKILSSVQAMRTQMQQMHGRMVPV

[32] = target: T3, Endoribonuclease toxin MazF (Escherichia coli K-12, UniProt P0AE70); experiment: fluorescent RNA oligo signal without MazF, dose response, counter-screen for MazEF activator project, biochemical, fluorescence, single-stranded RNase substrate (AID 588502); format: functional
T3 sequence (P0AE70 whole entry): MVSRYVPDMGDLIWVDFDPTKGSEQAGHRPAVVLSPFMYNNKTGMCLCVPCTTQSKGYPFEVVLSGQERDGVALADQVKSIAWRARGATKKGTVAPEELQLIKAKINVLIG

[33] = target: ORF 73 (Human herpesvirus 8, UniProt O40947); experiment: inhibitors of C-LANA binding to LBS DNA, dose response, biochemical, fluorescence polarization, cherry-picked samples (AID 504725); set-up: species or system Human gammaherpesvirus 8;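 also: fluorescence polarization of a labeled DNA duplex reporting LANA DNA binding; potency is for inhibitors that block LANA binding to the DNA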
[34] = system: HeLa; experiment: HeLa cell cytotoxicity, dose response, cytotoxicity control, 24 h, cherry-picked samples (AID 504726); format: functional, cell-based; settings: Homo sapiens;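 also: potency for cytotoxicity as loss of luminescence signal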
[35] = target: T4, Corticotropin-releasing factor receptor 2/Corticotropin-releasing factor-binding protein (Homo sapiens, UniProt P24387+Q13324); experiment: activators of CRF receptor 2 with binding protein – uHTS hits, confirmation (AID 602473); format: functional; settings: read-out: EC50_Mean
T4 sequence (Q13324 whole entry): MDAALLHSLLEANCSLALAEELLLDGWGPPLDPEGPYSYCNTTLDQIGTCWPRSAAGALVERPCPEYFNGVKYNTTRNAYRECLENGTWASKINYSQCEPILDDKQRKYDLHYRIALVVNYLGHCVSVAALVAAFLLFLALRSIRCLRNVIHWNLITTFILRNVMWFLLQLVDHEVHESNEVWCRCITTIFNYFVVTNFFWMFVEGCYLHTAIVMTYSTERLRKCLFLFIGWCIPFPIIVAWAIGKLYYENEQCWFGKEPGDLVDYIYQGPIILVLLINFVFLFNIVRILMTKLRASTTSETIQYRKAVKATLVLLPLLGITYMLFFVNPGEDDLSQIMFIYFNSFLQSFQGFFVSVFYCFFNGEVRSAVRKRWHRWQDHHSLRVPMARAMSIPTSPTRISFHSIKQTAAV
T4 sequence (P24387 whole entry): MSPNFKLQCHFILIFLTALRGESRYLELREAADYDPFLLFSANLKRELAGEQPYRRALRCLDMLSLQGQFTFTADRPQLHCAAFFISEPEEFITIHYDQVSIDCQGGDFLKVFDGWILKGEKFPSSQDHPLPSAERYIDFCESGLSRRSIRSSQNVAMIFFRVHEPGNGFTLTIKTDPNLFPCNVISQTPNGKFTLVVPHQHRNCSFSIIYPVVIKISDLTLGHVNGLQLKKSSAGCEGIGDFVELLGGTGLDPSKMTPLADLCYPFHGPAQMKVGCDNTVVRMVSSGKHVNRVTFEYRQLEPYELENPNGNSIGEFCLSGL

[36] = target: Keap1/Nrf2 (Homo sapiens, UniProt Q14145); experiment: Keap1-Nrf2 protein-protein interaction inhibitors, dose response, biochemical, fluorescence polarization, cherry-picked samples (AID 588683)
[37] = target: Beta Lactamase (Pseudomonas aeruginosa, UniProt Q932Y6); experiment: beta-lactamase reporter inhibitor potency, dose response, artefact control for TLR9-MyD88 binding inhibitor project, BLA reporter cells, FRET fluorescence (AID 588341); format: cell-based;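 also: cell based assay in CHO-K1 cells stably expressing beta-lactamase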
[38] = target: T3, Endoribonuclease toxin MazF; experiment: MazF toxin RNase activators, dose response, biochemical, fluorescence, single-stranded RNA substrate, uHTS hits (AID 588481); format: functional
[39] = system: CHO; experiment: cytotoxicity in TLR9-MyD88 CHO cells, dose response, cytotoxicity control for TLR9-MyD88 binding inhibitor project, cell-based, luminescence (AID 588339); format: functional, hamster; settings: Cricetulus griseus;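 also: CHO cells stably coexpressing TLR9 and MyD88 fusions from primary screen; compound exposure lasted 48 hours before viability readout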

CC(C)COP(=O)(OCC(C)C)C(Nc1ccccc1)c1ccc(F)cc1 (stereo not given)
active: EC50 [1] 12.2 µM

CNC(=O)CSc1nc2ccccc2c(=O)[nH]1
active: CC50 [2] > 100 µM | CC50 [3] > 100 µM | CC50 [4] > 100 µM

Cc1ccc(-c2nc3ccc(Br)cc3c(C(=O)O)c2CC(=O)O)cc1C
active: Ki [5] 0.0631 µM | Ki [6] 0.126 µM

C=CCn1c(=O)[nH]c2nc3cc(/N=C/N(C)C)c(C)cc3nc2c1=O
active: EC50 [7] 3.27 µM | EC50 [8] 5.89 µM | EC50 [9] 1.86 µM | EC50 [10] 1.62 µM

Cc1ccc(S(=O)(=O)N2CCN(CC(=O)N/N=C/c3ccccn3)CC2)cc1
active: AC50 [11] 13.7 µM

O=C(Nc1cccc(-c2nc3sccn3c2-c2ccnc(Nc3ccccc3Cl)n2)c1)c1ccccc1
active: Ki [12] 0.794 µM | Ki [13] 3.98 µM

CCOc1ccc(Oc2c(Cl)c(N3CCCCC3)nn(Cc3cccc4ccccc34)c2=O)cc1
inactive: IC50 [14] > 20 µM | IC50 [15] > 20 µM

Cc1noc(C)c1NC(=O)Nc1ccc2c(c1)C(=O)N([C@@H](C)CO)C[C@@H](C)[C@H](CN(C)S(=O)(=O)c1ccc(F)cc1)OCCCC[C@H](C)O2
active: AC50 [16] 0.697 µM | AC50 [17] 0.609 µM | AC50 [18] 0.57 µM | AC50 [19] 0.697 µM

Cc1csc2nc(N)nn12
active: Ki [20] 79.4 µM | Ki [21] 31.6 µM | Ki [22] 50.1 µM | Ki [23] 79.4 µM | Ki [24] 39.8 µM | Ki [25] 31.6 µM | Ki [26] 79.4 µM

CC(C)(C)c1cnc(CSc2cnc(NC(=O)C3CCNCC3)s2)o1 [BMS-387032]
inactive: Ki [27] > 3.98 µM | Ki [28] > 3.98 µM

CN(C(=O)COC(=O)CNC(=O)c1ccc(Cl)cc1Cl)c1ccccc1
inactive: IC50 [29] > 64.6 µM | IC50 [30] > 64.6 µM

CCn1nc(-c2ccccc2)c2nc3ccccc3nc21
inactive: EC50 [32] 84 µM | EC50 [38] > 99 µM | IC50 [39] > 49.7 µM
active: IC50 [31] 5.45 µM | AC50 [33] 30.9 µM | AC50 [34] 96.5 µM | EC50 [35] 6.66 µM | EC50 [9] 5.55 µM | AC50 [36] 39.5 µM | IC50 [37] 5.36 µM
